Assay results as given in US20130065818A1, “Arylamide Compounds And Compositions And Uses Thereof” (POLYMEDIX, priority 2006, published 2013).

Experiment: NZW rabbit keratitis model, clinical evaluation (Total Ocular Score)
Description: Fifteen rabbits were received from Myrtles' Rabbitry, Thompson Station, TN. The clinical isolate of fluoroquinolone-resistant, methicillin-resistant (MRSA) Staphylococcus aureus (K950) was subcultured on 5% sheep blood agar and incubated at 37° C. in 6% CO2 overnight. The next morning, the MRSA strain was suspended in sterile trypticase soy broth to a 0.5 McFarland Standard, containing approximately 5×10^8 cfu/ml of bacteria. The absorbance of the suspension was measured at 650 nm using a Beckman DU-70 spectrophotometer. OD readings of 0.07 corresponded to 5×10^8 cfu/ml of bacteria. This concentration was appropriately diluted in sterile trypticase soy broth to provide the inoculum of approximately 1,000 (1.0×10^3) cfu/eye in 25 μl. Colony counts were performed on the inoculum to determine the actual cfu inoculated. Following general anesthesia with ketamine and xylazine and topical anesthesia with proparacaine and prior to bacterial inoculation in the left eyes, 6 mm areas of the corneal epithelia was removed centrally with an Amoils epithelial scrubber. Nothing was done to the right eyes. The 15 rabbits were then inoculated intrastromally in both eyes with 25 μl of the bacterial dilution of approximately 10^3 cfu/eye of the bacteria. The bacterial inoculation of the left eyes was directly under the epithelial defect created by the Amoils epithelial scrubber. The epithelia were removed in the left corneas in order to determine whether this layer of the cornea is a barrier for Oligomer 2 penetration when compared to the right cornea with an intact epithelium. A colony count was done on the inoculum to determine the actual cfu inoculated. The rabbits were immediately treated with analgesia in the form of and intramuscular injection of ketoprofen, 1.5 mg/kg. After 4 hours, the 15 rabbits were divided into 4 treatment groups and one untreated control group sacrificed at the onset of therapy. Both eyes of each rabbit of the treatment groups were treated with one 37 μl drop of the coded solutions or control Saline or 1 drop of vancomycin from its dropper bottle. The Oligomer 2 concentrations were masked and labeled as 1 and 2. The masked concentrations were 1% Oligomer 2 and 0.5% Oligomer 2 but the specific concentrations of solutions were not known to the lab workers who carried out the experiment. The vancomycin and control (Tris-Buffered Saline) were not masked.
Treatment was scheduled for every 15 minutes for 5 hours (21 total doses). However, PMX-1 and PMX-2 were exhausted after the 19th dose. Therefore, the actual treatment was 15 minutes for 4.5 hours (19 total doses). The 3 rabbits in group V were sacrificed 4 hours PI and large 9.5 mm buttons were removed from the corneas. These were placed in 1 ml of PBS and kept on ice. The corneal buttons were homogenized for 25 seconds on ice using the motorized homogenizer. After homogenization, colony counts were done on the homogenates using 5% sheep blood agar plates to determine the amount of bacteria contained in the corneas at the onset of therapy. Following the completion of therapy, the eyes were examined for clinical signs of infection. One hour after the final treatment, the treated rabbits (Groups I-IV) were sacrificed and large 9.5 mm buttons were removed from the corneas. These were placed in 1 ml of PBS and kept on ice. The corneal buttons were homogenized for 25 seconds on ice using the motorized homogenizer. After homogenization, colony counts were performed on the homogenates using 5% sheep blood agar plates to determine the amount of bacteria contained in the corneas after treatment. The next morning, the plates were counted and the number of cfu/eye of Staphylococcus aureus was determined for each cornea.
Fifteen rabbits were received from Myrtles' Rabbitry, Thompson Station, TN.

Structure (SMILES) | Toxicity (Total Ocular Scores) compared with Saline treated eyes (rabbit, in vivo) | Effect of removal of the epithelium on Total Ocular Scores (Ker-1, 1% and 0.5% Oligomer 2, compared with intact epithelia)
CC(C)=CCCC(C)=CCCC(C)=CCO [Farnesol] | did not induce statistically greater toxicity | –
N=C(N)NCCCCC(=O)Nc1cc(C(F)(F)F)cc(NC(=O)c2cc(C(=O)Nc3cc(C(F)(F)F)cc(NC(=O)CCCCNC(=N)N)c3SCCN)ncn2)c1SCCN [Oligomer 2] | – | increased the Total Ocular Scores
